The record followed here is patent US20240417405A1, “Substituted Spiro Derivatives” (Janssen Pharmaceutica NV, priority 2021, published 2024).

The target of assay [1] is T1, menin/MLL (terbium chelate-labeled menin, FITC-MBM1 peptide) (Homo sapiens, UniProt O00255, T541A).
T1 construct: Menin (a.a 1-610-6xhis tag)
T1 sequence (O00255 with tags, fused parts or gaps T541A): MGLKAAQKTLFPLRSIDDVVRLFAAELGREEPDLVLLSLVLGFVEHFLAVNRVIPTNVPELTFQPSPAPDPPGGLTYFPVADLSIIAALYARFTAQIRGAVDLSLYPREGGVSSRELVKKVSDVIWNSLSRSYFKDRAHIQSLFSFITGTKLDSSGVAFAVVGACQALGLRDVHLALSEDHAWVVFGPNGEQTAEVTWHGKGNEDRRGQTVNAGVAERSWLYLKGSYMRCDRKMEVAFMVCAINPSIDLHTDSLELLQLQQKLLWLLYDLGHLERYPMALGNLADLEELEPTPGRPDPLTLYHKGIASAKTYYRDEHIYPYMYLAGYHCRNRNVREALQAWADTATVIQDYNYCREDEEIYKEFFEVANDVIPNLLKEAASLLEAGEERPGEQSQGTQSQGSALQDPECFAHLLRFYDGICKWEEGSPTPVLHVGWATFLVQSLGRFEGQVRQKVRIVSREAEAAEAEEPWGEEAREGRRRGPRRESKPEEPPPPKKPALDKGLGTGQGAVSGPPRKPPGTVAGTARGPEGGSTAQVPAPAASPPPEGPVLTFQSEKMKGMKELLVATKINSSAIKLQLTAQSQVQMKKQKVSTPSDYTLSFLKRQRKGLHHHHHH
Nature of the assay: Menin/MLL homogenous time-resolved fluorescence (HTRF) assay. As to conditions: 30 min incubation. It counts as binding. The essentials:
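Compounds were preincubated 30 min at ambient temperature with 200 pM terbium-labeled menin (aa 1-610, His-tagged) in Tris pH 7.5 buffer with DTT and Pluronic, then 75 nM FITC-MBM1 peptide added for 15 min. HTRF ratio 520/490 nm gave % inhibition; IC50 from four-parameter fit, floor 0.1 nM.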

Assay [2] relates to MOLM14 cells. The experiment in a line: Proliferation assay, spheroid-like growth, MOLM14 (MLL-AF9 rearranged). It counts as cell-based, human. As to conditions: Homo sapiens, MOLM-14, 192 h, 8 days, confluence as measure of spheroid size, read-out: spheroid assay_OneTime MOLM14 IC50. The essentials: (§1)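 IC50 derived from a variable-slope dose-response fit of percent confluence change, with DMSO-treated cells as high control and high-dose reference compound as low control. Spheroid-like growth of MOLM14 (200 cells/well) or KO-52 (300 cells/well) in ultra-low attachment plates, 8 days, 37° C, 5% CO2, DMSO normalised to 0.3%, imaged at day 8.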

The test system of assay [3] is KO-52 cells. The experiment in a line: Proliferation assay, spheroid-like growth, KO-52 (MLL wildtype control cell line). It counts as cell-based, human. The settings on record: Homo sapiens, 192 h, KO-52 control cells, 8 days, confluence as measure of spheroid size; read-out: spheroid assay_OneTime KO-52 IC50. The essentials:
as §1

Bounds are passed on as bounds.

In general, IC50 refers to the concentration at which inhibition is half-maximal. For `CC(C)[C@@H]([C@H]1C[C@H](N2C[C@H]3C[C@@H]2CO3)C1)N1CC2(CCN(c3ncnnc3Oc3ccc(F)cc3-c3cccnc3C3CC3)C2)C1` (single isomer, unassigned) [Compound 291], the IC50 in assay [1] came out at 0.2 nM; in assay [2] it was 24 nM; in assay [3], 1070 nM.
Consider `CC(C)[C@H]([C@H]1C[C@@H](NC(=O)CC2COC2)C1)N1CC2(CCN(c3ncnnc3Oc3ccc(F)cc3-c3cncnc3C3CC3)C2)C1` (single isomer, unassigned) [Compound 296], for which the IC50 in assay [1] is 0.2 nM; in assay [2] it was 10 nM; in assay [3], over 15000 nM.
In the same order, the values of `CC(C)[C@H]([C@H]1C[C@@H](NC(=O)CCN(C)C)C1)N1CC2(CCN(c3ncnnc3Oc3ccc(F)cc3-c3cncnc3C3CC3)C2)C1` (single isomer, unassigned) [Compound 297] are 0.1 nM, 10 nM and 10600 nM.
Taken in the same sequence, the figures for `CC(C)[C@H]([C@H]1C[C@@H](NC(=O)CC#N)C1)N1CC2(CCN(c3ncnnc3Oc3ccc(F)cc3-c3cncnc3C3CC3)C2)C1` (single isomer, unassigned) [Compound 298] were 0.1 nM, 6 nM and 9320 nM.
In the same order, the values of `COCC(=O)N[C@H]1C[C@@H]([C@@H](C(C)C)N2CC3(CCN(c4ncnnc4Oc4ccc(F)cc4-c4cncnc4C4CC4)C3)C2)C1` (single isomer, unassigned) [Compound 299] are 0.2 nM, 34 nM and 8350 nM.
For the compound `CC(C)[C@H]([C@H]1C[C@@H](NC(=O)C(C)(C)C)C1)N1CC2(CCN(c3ncnnc3Oc3ccc(F)cc3-c3cncnc3C3CC3)C2)C1` (single isomer, unassigned) [Compound 300], the IC50 in assay [1] came to 0.3 nM; in assay [2], 170 nM; in assay [3], 8190 nM.
In the same order, the values of `CC(C)[C@H]([C@H]1C[C@@H](NC(=O)C2(F)CC2)C1)N1CC2(CCN(c3ncnnc3Oc3ccc(F)cc3-c3cncnc3C3CC3)C2)C1` (single isomer, unassigned) [Compound 301] are 0.2 nM, 33 nM and 2500 nM.
In the same order, the values of `CC(C)[C@H]([C@H]1C[C@@H](NC(=O)C2CC2)C1)N1CC2(CCN(c3ncnnc3Oc3ccc(F)cc3-c3cncnc3C3CC3)C2)C1` (single isomer, unassigned) [Compound 303] are 0.3 nM, 7 nM and 4530 nM.
In the same order, the values of `CC(C)[C@H]([C@H]1C[C@@H](NC(=O)C2CC2)C1)N1CC2(CCN(c3ncnnc3Oc3ccc(F)cc3-c3nnccc3C3CC3)C2)C1` (single isomer, unassigned) [Compound 304] are 0.1 nM, 32 nM and 12100 nM.
With `CC(C)[C@H]([C@H]1C[C@@H](NC(=O)C2(F)CC2)C1)N1CC2(CCN(c3ncnnc3Oc3ccc(F)cc3-c3nnccc3C3CC3)C2)C1` (single isomer, unassigned) [Compound 305], the IC50 in assay [1] came out at 0.2 nM; in assay [2], 17 nM; in assay [3], 5780 nM.
Taken in the same sequence, the figures for `CC(=O)N[C@H]1C[C@@H]([C@@H](C(C)C)N2CC3(CCN(c4ncnnc4Oc4ccc(F)cc4-c4nncnc4C4CC4)C3)C2)C1` (single isomer, unassigned) [Compound 306] were 0.3 nM, 56 nM and 6460 nM.
Take `CC(C)[C@H]([C@H]1C[C@@H](NC(=O)C2CC2)C1)N1CC2(CCN(c3ncnnc3Oc3ccc(F)cc3-c3nncn3C3CC3)C2)C1` (single isomer, unassigned) [Compound 307]: the IC50 in assay [1] is 0.7 nM; in assay [2] it was over 940 nM; in assay [3], over 15000 nM.
In the same order, the values of `CC(C)[C@H]([C@H]1C[C@@H](NC(=O)C2CC2)C1)N1CC2(CCN(c3ncnnc3Oc3ccc(F)cc3-n3ncnc3C3CC3)C2)C1` (single isomer, unassigned) [Compound 308] are 0.2 nM, 70 nM and 4570 nM.
Turning to `CC(C)[C@H]([C@H]1C[C@@H](NC(=O)C2CC2)C1)N1CC2(CCN(c3ncnnc3Oc3ccc(F)cc3-c3n[nH]c(=O)cc3C3CC3)C2)C1` (single isomer, unassigned) [Compound 309], the IC50 in assay [1] was 0.2 nM; in assay [2] it was 22 nM; in assay [3], 7390 nM.
In the same order, the values of `CC(C)[C@H]([C@H]1C[C@@H](NC(=O)C2(F)CC2)C1)N1CC2(CCN(c3ncnnc3Oc3ccc(F)cc3-c3n[nH]c(=O)cc3C3CC3)C2)C1` (single isomer, unassigned) [Compound 311] are 0.3 nM, 52 nM and 9990 nM.
Taken in the same sequence, the figures for `CC(=O)N[C@H]1C[C@@H]([C@@H](C(C)C)N2CC3(CCN(c4ncnnc4Oc4ccc(F)cc4-c4cnccc4C4CC4)C3)C2)C1` (single isomer, unassigned) [Compound 312] were 0.2 nM, 5 nM and 1270 nM.
Taken in the same sequence, the figures for `CC(C)[C@H]([C@H]1C[C@]2(CCC(=O)N2)C1)N1CC2(CCN(c3ncnnc3Oc3ccc(F)cc3-c3cncnc3C3CC3)C2)C1` (single isomer, unassigned) [Compound 313] were 43.4 nM, over 940 nM and over 15000 nM.
In the case of `CC(C)[C@H]([C@H]1C[C@@H](N2CC3(CCN(C)C3=O)C2)C1)N1CC2(CCN(c3ncnnc3Oc3ccc(F)cc3-c3cncnc3C3CC3)C2)C1` (single isomer, unassigned) [Compound 315], the IC50 in assay [1] worked out at 0.1 nM; in assay [2], 18 nM; in assay [3] it was 1960 nM.
Taken in the same sequence, the figures for `CC(C)[C@H]([C@H]1C[C@@H](N2CC3(COC(=O)N3)C2)C1)N1CC2(CCN(c3ncnnc3Oc3ccc(F)cc3-c3cncnc3C3CC3)C2)C1` (single isomer, unassigned) [Compound 318] were 0.1 nM, 26 nM and 6900 nM.
Taken in the same sequence, the figures for `CC(C)[C@H]([C@H]1C[C@]2(COC(=O)N2)C1)N1CC2(CCN(c3ncnnc3Oc3ccc(F)cc3-c3cncnc3C3CC3)C2)C1` (single isomer, unassigned) [Compound 319] were 23.7 nM, over 940 nM and over 15000 nM.
Taken in the same sequence, the figures for `CC(C)[C@@H]([C@H]1C[C@]2(COC(=O)N2)C1)N1CC2(CCN(c3ncnnc3Oc3ccc(F)cc3-c3cncnc3C3CC3)C2)C1` (single isomer, unassigned) [Compound 320] were 0.1 nM, 28 nM and 4600 nM.
Consider `CC(C)[C@H]([C@H]1C[C@]2(COC(=O)N2)C1)N1CC2(CCN(c3ncnnc3Oc3ccc(F)cc3-c3ncccc3C3CC3)C2)C1` (single isomer, unassigned) [Compound 321], for which the concentration for half-maximal inhibition (IC50) in assay [1] is 91.1 nM; in assay [2] it was over 940 nM; in assay [3] it was over 15000 nM.
